Data on one compound can be found in ChEMBL document CHEMBL4219257, “Novel 8-hydroxyquinoline derivatives targeting β-amyloid aggregation, metal chelation and oxidative stress against Alzheimer's disease” (Bioorg Med Chem, 2018).

Calls of active or inactive are those of the source. The rule behind the calls is not given here.

Data set [1] has as its system PC-12. The data set is described as follows: Cytoprotection against H2O2-induced apoptosis in rat PC12 cells assessed as necrotic cells at 5 uM preincubated for 4 hrs followed by H2O2 addition measured after 24 hrs by Annexin V-FITC/propidium iodide staining based flow cytometry (reference value: 8.9%). It counts as functional. (A flow cytometer gives signals particle by particle.)

The test system of data set [2] is PC-12. The data set is described as follows: Cytoprotection against rotenone-induced oxidative stress in rat PC12 cells assessed as increase in cell viability up to 10 uM after 24 hrs by MTT assay. The data set is classed as functional, cell-based. On the technique in general: Formazan colour is commonly taken as a measure of viable cells.
Data set [3] has as its system PC-12. The data set is described as follows: Cytoprotection against H2O2-induced apoptosis in rat PC12 cells assessed as live cells at 2.5 uM preincubated for 4 hrs followed by H2O2 addition measured after 24 hrs by Annexin V-FITC/propidium iodide staining based flow cytometry (reference value: 57%). It counts as functional.
Data set [4] can be described thus: Metal chelating activity assessed as compound-Fe3+ complex formation at 50 uM measured after 30 mins by UV-vis spectrophotometric method.
Data set [5] is described as follows: Antioxidant activity assessed as trolox equivalents of AAPH radical scavenging activity at 10 uM preincubated for 15 mins followed by AAPH addition measured every minute for 120 mins by ORAC-FL assay. It counts as functional.
Data set [6] in a line: Cytotoxicity against rat PC12 cells assessed as cell viability at 20 uM after 24 hrs by MTT assay relative to control. It counts as cell-based, PC-12. The note with it: read-out: Activity.
Data set [7] deals with PC-12. The data set is described as follows: Cytoprotection against H2O2-induced apoptosis in rat PC12 cells assessed as early apoptotic cells at 5 uM preincubated for 4 hrs followed by H2O2 addition measured after 24 hrs by Annexin V-FITC/propidium iodide staining based flow cytometry (reference value: 1.5%). It counts as functional.
Data set [8] is described as follows: Metal chelating activity assessed as compound-Zn2+ complex formation at 50 uM measured after 20 mins by fluorescence spectroscopic method.
The subject of a further data set is Mus musculus. The data set is described as follows: Cardiotoxicity in Kunming mouse up to 2000 mg/kg, po measured after 14 days by macroscopic method. The data set is classed as toxicity, organism-based. The note with it: in vivo, 336 h.
Data set [9] deals with PC-12. The data set is described as follows: Cytoprotection against H2O2-induced apoptosis in rat PC12 cells assessed as necrotic cells at 10 uM preincubated for 4 hrs followed by H2O2 addition measured after 24 hrs by Annexin V-FITC/propidium iodide staining based flow cytometry (reference value: 8.9%). It counts as functional.

With `O=C(CCc1ccccc1Cl)N1CCN(Cc2ccc(O)c3ncccc23)CC1`, the Activity in the data set with PC-12 [1] is 1.4%; with PC-12 [3], 79.9%; in [5] it was 2.63 equiv; with PC-12 [7], 2.3%; in the data set with Mus musculus, “Non-Toxic”; in the data set on PC-12 [9], 1.3%. For the same compound, the outcome (in the data set on PC-12 [2]; in data set [4]; in [8]) was Active. For the same compound, in data set [6], the viability at 24 h, 20 µM was determined as 83%.
